According to patent US20230165835A1, “METHODS OF TREATING ACUTE LUNG INJURY USING EBSELEN” (SOUND PHARMACEUTICALS INC., priority 2020, published 2023):

Columns and labels:
Vero E6 cells = experiment: Cytotoxicity / cell viability in Vero E6 cells; type: cell-based
SARS-CoV-2 = experiment: Hamster model of SARS-CoV-2 disease transmission and progression, viral load (PFU); type: in vivo, Golden Syrian Hamsters
Experimental: 24 hours prior to nasal inoculation with SARS-CoV-2, Golden Syrian Hamsters were dosed with ebselen, saline and remdesivir at 15 mg/kg. Samples were taken from nares (PFU/swab) on days 1, 2 and 3, and from the nasal turbinates and cranial & caudal lung tissue (PFU/100 mg) on day 7.

[1] = Cystic fibrosis trial Part 2 Intervention: tobramycin-induced ototoxicity; type: in vivo, human
Experimental: Thirty of 80 participants were enrolled starting in January 2019. They were Cystic fibrosis patients ages 18-70 that had acute pulmonary exacerbation or acute respiratory infections that required treatment with IV tobramycin 10 mg/kg/d for 10-21 days. They were randomized into four groups (1:1:1:1) (0, 200, 400, or 600 BID) and treated for 21 days. There were four follow-up visits for safety (adverse events, spirometry, labs), and two follow-up visits for efficacy (audiometric and vestibular). The primary endpoint was a reduction in cochleotoxic change, and the secondary endpoints was a reduction in tinnitus or vertigo severity.

[2] = Cystic fibrosis trial: sentinel Pk, plasma tobramycin levels (DDI); type: in vivo, human
[3] = Study 6.5: ebselen in moderate to severe COVID-19 at high risk of respiratory failure; type: in vivo, human; conditions: 400 to 600 mg BID up to 21 to 28 days
[4] = mice; Gu et al.; cited from earlier work
[5] = mice; Longenecker et al.; cited from earlier work
nCoV2 = experiment: Study 6.2: ebselen in nCoV2 positive subjects with no to mild COVID-19, viral load; conditions: 400 to 600 mg BID for 7-10 days, no to mild disease
Experimental: Eligible participants are diagnosed as nCoV2 positive and enrolled for treatment within 1-5 days of appearance of symptoms. The patient is not treated with another anti-viral therapeutic agent prior to beginning of treatment. […] Randomization is stratified by age (<60 years or ≥60 years).
Ebselen is dosed as 400 to 600 mg BID for a period of 7-10 days. […] Participants receive study intervention for up to 10 days and are followed for 28 days after first dose.
Respiratory samples are taken before treatment begins and daily during treatment to assess nCoV2 viral load daily.
The primary efficacy endpoint is the time to significant reduction in pre-treatment viral load (see Zou et al.; Pan et al.). […] Other efficacy assessments are also performed and compared to baseline levels.
Follow-up assessments can be performed at 2, 4, and 8 weeks after the start of treatment. […] Extended dosing involves sub-chronic dosing of 4-12 weeks (e.g., 4, 8 or 12 weeks) with assessment of viral load until virus eliminated.

[6] = Part 2 Intervention (1:1:1:1) pooled

For `O=c1c2ccccc2[se]n1-c1ccccc1` [ebselen, 2-phenyl-1,2-benzisoselenazol-3(2H)-one], the “cell viability at the EC50” value (Vero E6 cells) was 100%, the “effect on cell viability” value (Vero E6 cells; ebselen: at ranges slightly higher than EC50) was “cell viability was decreased” and the CC50 (Vero E6 cells; listed as ebselen (DMSO)) was greater than 1000 µM. For the same compound, the CC50 (Vero E6 cells; listed as ebselen (EtOH)) was greater than 100 µM, the “PFU/swab (nares) Day 1” value (SARS-CoV-2; 15 mg/kg, 24 hours prior to nasal inoculation, saline 2.7E+04) was 1.0E+04 PFU/swab and the “PFU/swab (nares) Day 3” value (SARS-CoV-2; 15 mg/kg, 24 hours prior to nasal inoculation, saline 5.5E+02) was 1.7E+02 PFU/swab. For the same compound, the “PFU/swab (nares) Day 2” value (SARS-CoV-2; 15 mg/kg, 24 hours prior to nasal inoculation, saline 7.5E+03) was 6.2E+03 PFU/swab, the “PFU/100 mg Cranial lung” value (SARS-CoV-2; 15 mg/kg, day 7, saline 4.9E+06) was 2.3E+06 PFU/100 mg and the “PFU/100 mg Turbinates” value (SARS-CoV-2; 15 mg/kg, day 7, saline 5.5E+07) was 3.6E+07 PFU/100 mg. The “PFU/100 mg Caudal lung” value (SARS-CoV-2; 15 mg/kg, day 7, saline 6.1E+06) was 6.0E+06 PFU/100 mg, the “samples with lower counts compared to remdesivir” value (SARS-CoV-2; Table 2, six samples) was 5 of 6 and the “samples with lower counts compared to saline” value (SARS-CoV-2; Table 2, six samples) was 6 of the 6. For the same compound, the “ototoxic change versus Part 1 Observational study” value ([1]; 4 weeks after IV tobramycin treatment) was “lower levels of ototoxic change”, the “% Responders (Bilateral), Conv + SRO” value [1, 6] was 29% and the “% Responders (Bilateral), Conventional” value [1, 6] was 5%. The “% Responders (Bilateral), DPOAE” value [1, 6] was 40%, the “% Responders (Bilateral), SRO” value [1, 6] was 21% and the “% Responders (Bilateral), WINT” value [1, 6] was 0%. The “% Responders (Unilateral), Conv + SRO” value [1, 6] was 29%, the “% Responders (Unilateral), Conventional” value [1, 6] was 5% and the “% Responders (Unilateral), DPOAE” value [1, 6] was 40%. For the same compound, the “% Responders (Unilateral), SRO” value [1, 6] was 37%, the “% Responders (Unilateral), WINT” value [1, 6] was 26% and the “% Responders, Conv + SRO” value [1, 6] was 57%. The “% Responders, DPOAE” value [1, 6] was 80%, the “% Responders, SRO” value [1, 6] was 58% and the “% Responders, TFI” value [1, 6] was 14%. The “% Responders, TL” value [1, 6] was 0%, the “% Responders, VSS” value [1, 6] was 5% and the “% Responders, WINT” value [1, 6] was 26%. For the same compound, the “% Responders, Conventional” value ([1]; Part 2 Intervention (1:1:1:1; 0, 200, 400, 600 BID pooled) with IV tobramycin, 4 weeks post-treatment) was 10%, the “change in plasma tobramycin levels (DDI)” value [2] was “no significant change in plasma tobramycin levels” and the “time to clinical improvement (NIAID ordinal scale)” value [3] was “effective to reduce time to at least a 2-grade improvement from baseline on the NIAID ordinal scale”. For the same compound, the “protection against tobramycin-induced ototoxicity, auditory brainstem responses” value [4] was “otoprotective and neuroprotective properties”, the “tinnitus and hyperacusis following amikacin-induced ototoxicity” value [5] was “improvements in tinnitus and hyperacusis” and the viral load (nCoV2) was “effective to reduce viral load”.
